In PMC8529588 (Nature chemical biology, 2021):
Where no end group is shown, it is not given here. [ ]: non-standard residue; d: D form. The star is where a group is joined. Biotin = O=C1N[C@H]2[C@H](CS[C@H]2CCCCC(=O)*)N1; pT = C[C@@H](OP(=O)(O)O)[C@H](N)C(=O)O

T1: Fbxo48-V5 (Homo sapiens, UniProt Q5FWF7)
T1 sequence (Q5FWF7 1-155): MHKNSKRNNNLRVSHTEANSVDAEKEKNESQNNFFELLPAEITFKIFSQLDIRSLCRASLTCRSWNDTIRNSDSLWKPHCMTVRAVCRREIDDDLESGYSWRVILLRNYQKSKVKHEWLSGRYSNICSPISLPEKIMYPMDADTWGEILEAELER

T2: Purified human Fbxo48 protein (recombinant, HIS-tagged) (human, UniProt Q5FWF7 1-155)
T2 sequence: T1 sequence (Q5FWF7 1-155)

B1: phospho-Ampkα peptide (Biotin-DGEFLRT(p)SCGSPN) (peptide)
peptide: Biotin-DGEFLR[pT]SCGSPN

What was measured:
[1] = target: T1, Fbxo48-V5; experiment: cellular thermal shift assay; assay type: cell-based; settings: 3 μM BC1618, 30 min, HEK293/293T cells; Fbxo30-V5 as negative control
[2] = target: T2, Purified human Fbxo48 protein …; experiment: pull-down

Row | Molecule | cellular thermal shift assay (CETSA), immunoblot [1] | binding result [2]
1 | OC(COc1ccc(C(F)(F)F)cc1)CN(Cc1ccccc1)Cc1ccccc1 (centres unmarked) [compound 2, BC1618] | BC1618 directly interacted with Fbxo48 but not Fbxo30 (negative control) | 
2 | B1 |  | binds
